The source of these data is patent US11912668B2, “GCN2 and perk kinase inhibitors and methods of use thereof” (Deciphera Pharmaceuticals, LLC, priority 2020, dated 2024).

The target of test [1] is GCN2 kinase (Homo sapiens (Human), UniProt Q9P2K8). The experiment in a line: Biochemical assay for GCN2 (TR-FRET kinase activity assay). The settings on record: 1 mM ATP, 3-hour incubation. A digest of the protocol: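 TR-FRET assay with 2 nM GCN2, 130 nM GFP-eIF2α substrate, 0.2 mg/mL E. coli tRNA and 1 mM ATP; compounds (0.5% DMSO) reacted 3 h. Stopped with 20 mM EDTA plus 2 nM Tb-anti-peIF2α (pSer52), 60 min RT; 520/490 ratio converted to % inhibition, IC50 from four-parameter fit.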

The target in test [2] is PERK kinase (Homo sapiens (Human), UniProt Q9NZJ5). The experiment in a line: Biochemical assay for PERK (coupled pyruvate kinase/lactate dehydrogenase assay). The settings on record: 1 mM ATP, rate from 2-3 h time frame. A digest of the protocol:
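Coupled pyruvate kinase/lactate dehydrogenase readout of ATP hydrolysis via NADH oxidation (A340), 10 nM PERK, 0.25 mg/mL myelin basic protein, 1 mM ATP, pH 7.5 Tris/MgCl2 buffer, 1% DMSO. Absorbance followed 6 h at 30° C; rate from the 2-3 h window, normalised to no-compound and known-inhibitor controls, IC50 fitted.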

For test [3], the system named is CCRF-CEM leukemia cells. The test is described as follows: CCRF-CEM ASNase cell proliferation assay, phenotypic assay for cellular inhibition of GCN2. The test is classed as cell-based. Particulars: Homo sapiens; ASNase treated CCRF-CEM cells, 1 mU/mL ASNase, 72 h. A digest of the protocol: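 Cells were seeded at ten thousand per well in RPMI-1640 with 10% heat-inactivated FBS and treated in triplicate with serially diluted compound plus 1 mU/mL ASNase for 72 h at 37 °C, 5% CO2. Resazurin was then added for 6 h, with fluorescence read at ex 540/em 600 nm to derive IC50 values.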

The subject of test [4] is phospho-GCN2 (Thr899) in HCT116 colorectal cancer cells. The experiment in a line: HCT116 amino acid starved (-AA) phospho-GCN2 assay (Western blot). Format: cell-based. The settings on record: Homo sapiens, HCT-116, 4 h, read-out: HCT116-AA pGCN2 Western Blot. A digest of the protocol:
(§1)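 HCT116 cells switched to amino-acid-free EBSS (10% dialyzed FBS, 5.5 mM glucose, vitamins) with serial compound dilutions for 4 h at 37° C. Lysates Western blotted for phospho-GCN2 (Thr899), total GCN2, ATF4 and beta-actin; IC50 values derived from quantified bands.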
On the technique in general: Immunoblotting shows a protein as a band on a membrane.

For test [5], the system named is ATF4 in HCT116 colorectal cancer cells. The test is described as follows: HCT116 amino acid starved (-AA) ATF4 assay (Western blot). The test is classed as cell-based. The settings on record: Homo sapiens, HCT-116, 4 h. A digest of the protocol: as §1
Test [6] has as its system ATF4 in CCRF-CEM leukemia cells (PERK). The test is described as follows: CCRF-CEM TG ATF4 ELISA, phenotypic assay for cellular inhibition of PERK preactivated by thapsigargin. Format: cell-based. Particulars: Homo sapiens; Thapsigargin (1 μM) stimulated CCRF-CEM cells. A general note: ELISA stands for enzyme-linked immunosorbent assay.

GCN2 kinase, sequence (Q9P2K8 whole entry): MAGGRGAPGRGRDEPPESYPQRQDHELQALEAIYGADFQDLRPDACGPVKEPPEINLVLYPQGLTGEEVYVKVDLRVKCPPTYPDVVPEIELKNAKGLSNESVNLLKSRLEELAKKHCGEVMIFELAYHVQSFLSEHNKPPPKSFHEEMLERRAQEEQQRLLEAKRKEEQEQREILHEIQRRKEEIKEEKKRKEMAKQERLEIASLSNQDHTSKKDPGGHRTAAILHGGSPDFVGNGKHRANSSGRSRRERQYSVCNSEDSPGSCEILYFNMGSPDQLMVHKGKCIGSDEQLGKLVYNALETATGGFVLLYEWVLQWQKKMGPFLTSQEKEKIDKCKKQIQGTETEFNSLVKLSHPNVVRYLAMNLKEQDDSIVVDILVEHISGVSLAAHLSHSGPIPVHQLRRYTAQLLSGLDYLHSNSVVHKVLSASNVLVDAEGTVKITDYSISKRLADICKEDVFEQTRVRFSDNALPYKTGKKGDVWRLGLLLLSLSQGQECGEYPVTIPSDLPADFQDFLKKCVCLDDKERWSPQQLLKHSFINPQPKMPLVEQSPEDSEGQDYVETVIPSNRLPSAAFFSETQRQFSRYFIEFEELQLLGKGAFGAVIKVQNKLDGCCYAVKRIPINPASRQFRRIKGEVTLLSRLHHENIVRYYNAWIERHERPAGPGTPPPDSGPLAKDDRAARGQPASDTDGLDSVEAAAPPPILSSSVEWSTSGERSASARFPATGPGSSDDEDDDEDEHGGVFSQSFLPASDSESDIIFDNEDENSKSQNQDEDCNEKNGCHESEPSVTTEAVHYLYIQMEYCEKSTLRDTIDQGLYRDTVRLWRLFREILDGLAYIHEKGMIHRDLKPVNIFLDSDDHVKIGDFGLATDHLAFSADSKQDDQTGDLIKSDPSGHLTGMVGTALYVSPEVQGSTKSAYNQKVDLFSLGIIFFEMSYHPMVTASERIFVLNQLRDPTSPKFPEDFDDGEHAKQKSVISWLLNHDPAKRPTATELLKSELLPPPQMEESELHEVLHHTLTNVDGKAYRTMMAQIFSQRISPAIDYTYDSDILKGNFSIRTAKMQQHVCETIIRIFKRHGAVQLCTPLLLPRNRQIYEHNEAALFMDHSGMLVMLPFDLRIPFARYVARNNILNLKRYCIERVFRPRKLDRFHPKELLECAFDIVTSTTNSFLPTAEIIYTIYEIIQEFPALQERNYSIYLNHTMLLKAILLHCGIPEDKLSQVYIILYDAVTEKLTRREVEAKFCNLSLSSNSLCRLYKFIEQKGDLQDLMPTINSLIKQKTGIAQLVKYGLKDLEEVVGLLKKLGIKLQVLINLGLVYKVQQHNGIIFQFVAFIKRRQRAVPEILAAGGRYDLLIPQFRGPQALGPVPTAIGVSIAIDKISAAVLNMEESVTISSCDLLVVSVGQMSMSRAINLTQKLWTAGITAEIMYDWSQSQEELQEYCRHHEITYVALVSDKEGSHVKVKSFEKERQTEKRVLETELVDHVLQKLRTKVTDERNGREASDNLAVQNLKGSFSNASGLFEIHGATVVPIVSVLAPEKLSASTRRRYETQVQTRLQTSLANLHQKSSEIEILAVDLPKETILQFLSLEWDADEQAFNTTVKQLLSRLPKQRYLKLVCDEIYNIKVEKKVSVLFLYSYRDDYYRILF
PERK kinase, sequence (Q9NZJ5 other isoform, or with tags, fused parts or gaps): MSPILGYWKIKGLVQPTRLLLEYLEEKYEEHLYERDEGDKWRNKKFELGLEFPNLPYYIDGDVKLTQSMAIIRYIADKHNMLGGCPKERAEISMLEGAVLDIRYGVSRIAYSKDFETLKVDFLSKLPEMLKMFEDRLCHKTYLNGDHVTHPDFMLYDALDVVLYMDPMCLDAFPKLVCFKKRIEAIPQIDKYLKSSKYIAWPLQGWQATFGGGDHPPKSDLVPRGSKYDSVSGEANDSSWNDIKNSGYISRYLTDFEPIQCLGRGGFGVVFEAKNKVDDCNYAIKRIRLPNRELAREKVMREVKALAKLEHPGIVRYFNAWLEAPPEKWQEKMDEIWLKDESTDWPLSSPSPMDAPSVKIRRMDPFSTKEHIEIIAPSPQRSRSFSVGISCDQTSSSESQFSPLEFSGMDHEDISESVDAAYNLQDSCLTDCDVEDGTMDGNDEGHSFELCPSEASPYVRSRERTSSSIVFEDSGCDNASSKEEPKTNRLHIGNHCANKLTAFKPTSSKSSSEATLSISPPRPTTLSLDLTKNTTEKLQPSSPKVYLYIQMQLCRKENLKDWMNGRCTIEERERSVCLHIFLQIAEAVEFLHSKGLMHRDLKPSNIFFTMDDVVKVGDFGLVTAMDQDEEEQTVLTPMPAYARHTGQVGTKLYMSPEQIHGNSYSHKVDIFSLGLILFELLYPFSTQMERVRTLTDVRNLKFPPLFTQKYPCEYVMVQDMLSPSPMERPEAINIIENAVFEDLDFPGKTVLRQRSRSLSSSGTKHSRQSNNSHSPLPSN

With `COc1ncc(Cl)cc1S(=O)(=O)Nc1cccc(-c2cc3cnc(NC(C)=O)cc3nc2C)c1F` [Example 84], the IC50 is at most 100 nM in test [1]; at most 100 nM in test [2]; at most 100 nM in test [3]; at most 100 nM in test [4]; at most 100 nM in test [5]; 100 to 500 nM in test [6].
Turning to `COc1ncc(Cl)cc1S(=O)(=O)Nc1cccc(-c2cnc3cc(N)ncc3c2)c1F` [Example 85], the IC50 is at most 100 nM in test [1]; at most 100 nM in test [2]; at most 100 nM in test [3]; at most 100 nM in test [4]; at most 100 nM in test [5]; 1000 to 10000 nM in test [6].
Turning to `COc1ncc(Cl)cc1S(=O)(=O)Nc1cc(F)cc(-c2cc3cnc(Nc4cnn(C)c4)nc3nc2C)c1` [Example 87], the IC50 was at most 100 nM in test [1]; at most 100 nM in test [2]; at most 100 nM in test [3]; at most 100 nM in test [4]; at most 100 nM in test [5]; 1000 to 10000 nM in test [6].
As for `COc1ncc(Cl)cc1S(=O)(=O)Nc1cccc(-c2cc3cnc(Nc4cnn(C)c4)nc3nc2C)c1F` [Example 88], the IC50 is at most 100 nM in test [1]; at most 100 nM in test [2]; at most 100 nM in test [3]; at most 100 nM in test [4]; at most 100 nM in test [5]; 100 to 500 nM in test [6].
Regarding `CNc1ncc2cc(-c3cccc(NS(=O)(=O)c4cc(Cl)cnc4OC)c3OC)c(C)nc2n1` [Example 89], the IC50 in test [1] was 100 to 500 nM; in test [2] it was at most 100 nM; in test [3], 100 to 500 nM; in test [4] it was at most 100 nM; in test [5] it was 100 to 500 nM; in test [6] it was 1000 to 10000 nM.
With `CNc1ncc2cc(-c3cccc(NS(=O)(=O)c4cc(Cl)cnc4NC)c3F)c(C)nc2n1` [Example 90], the IC50 in test [1] was at most 100 nM; in test [2], at most 100 nM; in test [3] it was at most 100 nM; in test [4] it was at most 100 nM; in test [5] it was at most 100 nM; in test [6], 1000 to 10000 nM.
Consider `COc1ncc(Cl)cc1S(=O)(=O)Nc1cc(F)cc(-c2cc3cnc(N)nc3nc2N)c1` [Example 92], for which the IC50 in test [1] was at most 100 nM; in test [2], at most 100 nM; in test [3], at most 100 nM; in test [4] it was at most 100 nM; in test [5] it was at most 100 nM; in test [6], 1000 to 10000 nM.
Consider `COc1nc2nc(N)ncc2cc1-c1cc(F)cc(NS(=O)(=O)c2cc(Cl)cnc2OC)c1` [Example 93], for which the IC50 in test [1] was at most 100 nM; in test [2], 100 to 500 nM; in test [3], 100 to 500 nM; in test [4], at most 100 nM; in test [5], 100 to 500 nM; in test [6], 1000 to 10000 nM.
Turning to `CNc1ncc2cc(-c3cccc(NS(=O)(=O)c4cc(Cl)cnc4OC)c3C#N)c(C)nc2n1` [Example 95], the IC50 was at most 100 nM in test [1]; 100 to 500 nM in test [2]; 100 to 500 nM in test [3]; at most 100 nM in test [4]; 100 to 500 nM in test [5]; 1000 to 10000 nM in test [6].
Consider `CNc1nc2nc(N)ncc2cc1-c1cc(F)cc(NS(=O)(=O)c2cc(Cl)cnc2OC)c1` [Example 96], for which the IC50 is at most 100 nM in test [1]; 100 to 500 nM in test [2]; 100 to 500 nM in test [3]; at most 100 nM in test [4]; 100 to 500 nM in test [5]; 1000 to 10000 nM in test [6].
As for `CNc1ncc2cc(-c3cccc(NS(=O)(=O)c4cc(Cl)cnc4OC)c3F)c(NCCO)nc2n1` [Example 97], the IC50 in test [1] is at most 100 nM; in test [2], 100 to 500 nM; in test [3] it was at most 100 nM; in test [4], at most 100 nM; in test [5], 100 to 500 nM; in test [6], 1000 to 10000 nM.
As for `CNc1ncc2cc(-c3cccc(NS(=O)(=O)c4cc(Cl)cnc4OC)c3F)c(NCCOC)nc2n1` [Example 100], the IC50 in test [1] is at most 100 nM; in test [2] it was 100 to 500 nM; in test [3], at most 100 nM; in test [4], at most 100 nM; in test [5], at most 100 nM; in test [6], 1000 to 10000 nM.
Take `CNc1ncc2cc(-c3cccc(NS(=O)(=O)c4cc(Cl)cc(C(=O)OC)c4Cl)c3F)c(NC)nc2n1` [Example 102]: the IC50 in test [1] was at most 100 nM; in test [2], 100 to 500 nM; in test [3], at most 100 nM; in test [4] it was at most 100 nM; in test [5] it was at most 100 nM; in test [6], 1000 to 10000 nM.
For `CNc1nc2nc(NC3CC3)ncc2cc1-c1cccc(NS(=O)(=O)c2cc(Cl)cnc2OC)c1F` [Example 111], the IC50 in test [1] is at most 100 nM; in test [2], 100 to 500 nM; in test [3], 100 to 500 nM; in test [4], 100 to 500 nM; in test [5] it was at most 100 nM; in test [6] it was 1000 to 10000 nM.
In the case of `CNc1cc2nc(NC)c(-c3cccc(NS(=O)(=O)c4cc(Cl)cnc4OC)c3Cl)cc2cn1` [Example 113], the IC50 was 100 to 500 nM in test [1]; 100 to 500 nM in test [2]; at most 100 nM in test [3]; at most 100 nM in test [4]; 100 to 500 nM in test [5]; 500 to 1000 nM in test [6].
Consider `CNc1cc2nc(NC)c(-c3cccc(NS(=O)(=O)c4cc(Cl)cnc4OC)c3F)cc2cn1` [Example 114], for which the IC50 in test [1] is at most 100 nM; in test [2] it was at most 100 nM; in test [3], at most 100 nM; in test [4], at most 100 nM; in test [5], 100 to 500 nM; in test [6], 1000 to 10000 nM.
Take `CCNc1ncc2cc(-c3cccc(NS(=O)(=O)c4cc(Cl)cnc4OC)c3F)c(NC)nc2n1` [Example 115]: the IC50 was at most 100 nM in test [1]; at most 100 nM in test [2]; at most 100 nM in test [3]; at most 100 nM in test [4]; at most 100 nM in test [5]; 1000 to 10000 nM in test [6].
On to `CNc1nc2nc(NC(C)C)ncc2cc1-c1cccc(NS(=O)(=O)c2cc(Cl)cnc2OC)c1F` [Example 117], for which the IC50 was at most 100 nM in test [1]; 100 to 500 nM in test [2]; 100 to 500 nM in test [3]; 100 to 500 nM in test [4]; 100 to 500 nM in test [5]; 1000 to 10000 nM in test [6].
`COc1ncc(Cl)cc1S(=O)(=O)Nc1cccc(-c2cc3cnc(N)cc3nc2C)c1Cl` [Example 121]: the IC50 in test [1] is at most 100 nM; in test [2] it was at most 100 nM; in test [3] it was at most 100 nM; in test [4], at most 100 nM; in test [5] it was at most 100 nM; in test [6] it was 100 to 500 nM.
Turning to `CNc1cc2nc(C)c(-c3cccc(NS(=O)(=O)c4cc(Cl)cnc4OC)c3Cl)cc2cn1` [Example 127], the IC50 in test [1] was at most 100 nM; in test [2] it was at most 100 nM; in test [3], at most 100 nM; in test [4] it was at most 100 nM; in test [5], at most 100 nM; in test [6] it was 500 to 1000 nM.
In the case of `CNc1cc2nc(OC)c(-c3cccc(NS(=O)(=O)c4cc(Cl)cnc4OC)c3F)cc2cn1` [Example 129], the IC50 was at most 100 nM in test [1]; at most 100 nM in test [2]; at most 100 nM in test [3]; at most 100 nM in test [4]; at most 100 nM in test [5]; 1000 to 10000 nM in test [6].
As for `CNc1ncc2cc(-c3cccc(NS(=O)(=O)c4cc(Cl)c(OC)cc4Cl)c3F)c(NC)nc2n1` [Example 132], the IC50 is at most 100 nM in test [1]; at most 100 nM in test [2]; at most 100 nM in test [3]; at most 100 nM in test [4]; at most 100 nM in test [5]; 500 to 1000 nM in test [6].
